Measured values taken from patent publication US9926281B2 (priority 2014, dated 2018).
Where two headings read alike, the source gives them in different places.

Assays:
rnADAMTS-5 (1-564-6H) = rnADAMTS-5 (1-564-6H) (Rattus norvegicus, UniProt Q6TY19); conditions: read-out: Rat ADAMTS-5 potency IC50
human ADAMTS-5 [1] = target: T1, human ADAMTS-5 (Homo sapiens (Human), UniProt Q9UNA0); conditions: read-out: hADAMTS-5 potency IC50
Procedure: Finally, the fluorescence is read on the Envision (Perkin Elmer) after an incubation of 90 min at 37° C.

human TACE = human TACE (Homo sapiens (Human), UniProt P78536); conditions: read-out: TACE potency IC50
human MMP13 [2] = target: T2, human MMP13 (Homo sapiens (Human), UniProt P45452); conditions: read-out: hMMP-13 potency IC50
Procedure: Human MMP13 is preactivated by incubated the enzyme in the same buffer complemented with 1 mM freshly prepared p-Aminophenylmercuric acetate (AMPA) for 1 hour at 37° C.

human MMP14 = human MMP14 (Homo sapiens (Human), UniProt P50281); conditions: read-out: hMMP-14 potency IC50
human MMP13 [3] = target: T2, human MMP13; conditions: read-out: hMMP-13 potency IC50; remark: listed apart in the source
Procedure: The reaction is initiated by adding to the assay plate 520 MMP-fret substrate XV (10 μL, 4 μM) in the same buffer.

human ADAMTS-5 [4] = target: T1, human ADAMTS-5; conditions: read-out: hADAMTS-5 potency IC50; remark: listed apart in the source

Sequence of human TACE (P78536 whole entry, looked up, change not shown): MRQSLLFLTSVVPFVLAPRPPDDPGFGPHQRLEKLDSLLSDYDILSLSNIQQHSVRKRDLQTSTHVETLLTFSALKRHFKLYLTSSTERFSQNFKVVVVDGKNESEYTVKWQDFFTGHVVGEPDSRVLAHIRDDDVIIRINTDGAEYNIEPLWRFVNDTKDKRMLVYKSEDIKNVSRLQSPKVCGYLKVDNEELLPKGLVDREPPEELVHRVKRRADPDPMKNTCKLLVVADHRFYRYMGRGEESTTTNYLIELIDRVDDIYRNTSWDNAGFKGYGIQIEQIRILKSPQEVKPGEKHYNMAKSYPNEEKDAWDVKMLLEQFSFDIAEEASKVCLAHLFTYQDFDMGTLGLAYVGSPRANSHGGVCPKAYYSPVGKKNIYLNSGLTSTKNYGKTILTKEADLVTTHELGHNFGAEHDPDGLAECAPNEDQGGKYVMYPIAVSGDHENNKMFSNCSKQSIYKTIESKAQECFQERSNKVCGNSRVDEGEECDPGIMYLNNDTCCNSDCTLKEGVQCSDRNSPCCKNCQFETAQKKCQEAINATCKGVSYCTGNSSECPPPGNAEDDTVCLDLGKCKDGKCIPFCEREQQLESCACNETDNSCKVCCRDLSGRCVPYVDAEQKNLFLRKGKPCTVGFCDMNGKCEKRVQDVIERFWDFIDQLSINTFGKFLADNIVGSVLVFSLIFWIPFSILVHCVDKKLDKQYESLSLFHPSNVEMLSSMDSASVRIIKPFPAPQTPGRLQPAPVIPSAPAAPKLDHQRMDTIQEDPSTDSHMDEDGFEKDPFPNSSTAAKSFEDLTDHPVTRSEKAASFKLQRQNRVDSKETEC
T1 sequence (Q9UNA0 262-930): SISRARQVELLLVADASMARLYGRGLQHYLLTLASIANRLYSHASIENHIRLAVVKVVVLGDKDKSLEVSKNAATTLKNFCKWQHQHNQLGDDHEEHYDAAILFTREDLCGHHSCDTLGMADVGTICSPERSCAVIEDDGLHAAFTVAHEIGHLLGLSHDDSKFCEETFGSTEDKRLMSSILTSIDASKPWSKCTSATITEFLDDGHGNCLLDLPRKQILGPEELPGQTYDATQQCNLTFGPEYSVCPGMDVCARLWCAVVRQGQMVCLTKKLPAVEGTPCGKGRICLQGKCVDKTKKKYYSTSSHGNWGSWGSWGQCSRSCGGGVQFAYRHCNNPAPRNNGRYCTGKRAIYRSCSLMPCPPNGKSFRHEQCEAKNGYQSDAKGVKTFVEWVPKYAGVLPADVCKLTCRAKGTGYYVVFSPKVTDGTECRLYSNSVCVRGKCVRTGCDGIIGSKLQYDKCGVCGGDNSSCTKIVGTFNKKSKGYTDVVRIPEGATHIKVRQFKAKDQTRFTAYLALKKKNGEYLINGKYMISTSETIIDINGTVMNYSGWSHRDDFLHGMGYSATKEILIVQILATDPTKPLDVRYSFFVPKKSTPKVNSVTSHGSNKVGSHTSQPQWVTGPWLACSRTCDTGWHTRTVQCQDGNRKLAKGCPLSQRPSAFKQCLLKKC

Structure (SMILES) | IC50 (rnADAMTS-5 (1-564-6H)) | IC50 (human ADAMTS-5 [1]) | IC50 (human TACE) | IC50 (human MMP13 [2]) | IC50 (human MMP14) | IC50 (human MMP13 [3]) | IC50 (human ADAMTS-5 [4])
CC(=O)N1CC(C2(CC(C)C(=O)N3CCN(c4ccc(F)c(F)c4)[C@@H](C)C3)NC(=O)NC2=O)C1 (stereo partly drawn) [compound 249, 5-(1-acetylazetidin-3-yl)-5-[3-[(3S)-4-(3,4-difluorophenyl)-3-methyl-piperazin-1-yl]-2-methyl-3-oxo-propyl]imidazolidine-2,4-dione] | 34 nM | 36 nM | > 19600 nM | > 4000 nM | 1230 nM | – | –
Cc1ccccc1N1CCN(C(=O)CCC2(C)NC(=O)NC2=O)CC1 (stereo not shown) [compound 12, 5-methyl-5-[3-[4-(o-tolyl)piperazin-1-yl]-3-oxo-propyl]imidazolidine-2,4-dione] | 1160 nM | – | > 4000 nM | – | – | > 20000 nM | –
O=C1NC(=O)C(CCC(=O)N2CCN(c3ccccc3Cl)CC2)(c2ccccc2)N1 (stereo not shown) [compound 20, 5-[3-[4-(2-chlorophenyl)piperazin-1-yl]-3-oxo-propyl]-5-phenyl-imidazolidine-2,4-dione] | 1270 nM | – | > 4000 nM | – | – | > 20000 nM | 1280 nM
CC1(CCC(=O)N2CCN(c3ccccc3)CC2)NC(=O)NC1=O (stereo not shown) [compound 1, 5-methyl-5-[3-oxo-3-(4-phenylpiperazin-1-yl)propyl]imidazolidine-2,4-dione] | 730 nM | – | > 20000 nM | – | – | > 20000 nM | –
O=C1NC(=O)C(CCC(=O)N2CCN(c3cc(Cl)cc(Cl)c3)CC2)(C2CC2)N1 (stereo not shown) [compound 55, 5-cyclopropyl-5-[3-[4-(3,5-dichlorophenyl)piperazin-1-yl]-3-oxo-propyl]imidazolidine-2,4-dione] | 37 nM | – | > 3310 nM | > 20000 nM | > 20000 nM | – | –
Cc1ccccc1N1CCN(C(=O)CC[C@@]2(c3ccccc3)NC(=O)NC2=O)CC1 [compound 27, (5S)-5-[3-[4-(o-tolyl)piperazin-1-yl]-3-oxo-propyl]-5-phenyl-imidazolidine-2,4-dione] | 124 nM | – | > 2000 nM | > 20000 nM | > 20000 nM | – | 90 nM
O=C1NC(=O)[C@](CCC(=O)N2CCN(c3cc(Cl)cc(Cl)c3)CC2)(C2CC2)N1 [compound 173, (5S)-5-cyclopropyl-5-[3-[4-(3,5-dichlorophenyl)piperazin-1-yl]-3-oxo-propyl]imidazolidine-2,4-dione] | 21 nM | 22 nM | 3140 nM | > 20000 nM | > 20000 nM | – | –
CC(CC1(C2CC2)NC(=O)NC1=O)C(=O)N1CCN(c2cncc(Cl)c2)[C@@H](C)C1 (stereo partly drawn) [compound 314, 5-[3-[(3S)-4-(5-chloro-3-pyridyl)-3-methyl-piperazin-1-yl]-2-methyl-3-oxo-propyl]-5-cyclopropyl-imidazolidine-2,4-dione] | 34 nM | 24 nM | > 4000 nM | – | > 20000 nM | – | –
C[C@H]1CN(C(=O)CC[C@@]2(C3CC3)NC(=O)NC2=O)CCN1c1ccc(F)c(F)c1 [compound 205, (5S)-5-cyclopropyl-5-[3-[(3S)-4-(3,4-difluorophenyl)-3-methyl-piperazin-1-yl]-3-oxo-propyl]imidazolidine-2,4-dione] | 27 nM | 26 nM | > 20000 nM | > 20000 nM | > 4000 nM | – | –
CC(CC1(C)NC(=O)NC1=O)C(=O)N1CCN(c2ccccc2)[C@@H](C)C1 (stereo partly drawn) [compound 217, 5-methyl-5-[2-methyl-3-[(3S)-3-methyl-4-phenyl-piperazin-1-yl]-3-oxo-propyl]imidazolidine-2,4-dione] | 49 nM | 59 nM | > 4000 nM | > 4000 nM | > 4000 nM | – | –
CC(CC1(CN2CCOCC2)NC(=O)NC1=O)C(=O)N1CCN(c2cc(Cl)cc(Cl)c2)CC1 (stereo not shown) [compound 242, 5-[3-[4-(3,5-dichlorophenyl)piperazin-1-yl]-2-methyl-3-oxo-propyl]-5-(morpholinomethyl)imidazolidine-2,4-dione] | 57 nM | 66 nM | 2520 nM | > 20000 nM | > 20000 nM | – | –
C[C@H]1CN(C(=O)CC[C@@]2(C3CC3)NC(=O)NC2=O)CCN1c1cccc(F)c1 [compound 203, (5S)-5-cyclopropyl-5-[3-[(3S)-4-(3-fluorophenyl)-3-methyl-piperazin-1-yl]-3-oxo-propyl]imidazolidine-2,4-dione] | 26 nM | 46 nM | > 20000 nM | > 20000 nM | > 4000 nM | – | –
CC1(CCC(=O)N2CCN(c3cc(Cl)cc(Cl)c3)CC2)NC(=O)NC1=O (stereo not shown) [compound 40, 5-[3-[4-(3,5-dichlorophenyl)piperazin-1-yl]-3-oxo-propyl]-5-methyl-imidazolidine-2,4-dione] | 234 nM | – | 2720 nM | > 20000 nM | > 20000 nM | – | –
O=C1NC(=O)C(CCC(=O)N2CCN(c3cccc(Cl)c3)CC2)(c2ccccc2)N1 (stereo not shown) [compound 6, 5-[3-[4-(3-chlorophenyl)piperazin-1-yl]-3-oxo-propyl]-5-phenyl-imidazolidine-2,4-dione] | 107 nM | – | 2360 nM | – | – | 2150 nM | –
COCC1(CC(C)C(=O)N2CCN(c3cccc(F)c3)[C@@H](C)C2)NC(=O)NC1=O (stereo partly drawn) [compound 229, 5-[3-[(3S)-4-(3-fluorophenyl)-3-methyl-piperazin-1-yl]-2-methyl-3-oxo-propyl]-5-(methoxymethyl)imidazolidine-2,4-dione] | – | 31 nM | > 4000 nM | 3850 nM | 682 nM | – | –
CC(CC1(C)NC(=O)NC1=O)C(=O)N1CCN(c2cccc(Cl)c2)[C@@H](C)C1 (stereo partly drawn) [compound 214, 5-[3-[(3S)-4-(3-chlorophenyl)-3-methyl-piperazin-1-yl]-2-methyl-3-oxo-propyl]-5-methyl-imidazolidine-2,4-dione] | 30 nM | 61 nM | > 4000 nM | > 3510 nM | 1230 nM | – | –
CC(CC1(C)NC(=O)NC1=O)C(=O)N1CCN(c2cccc(F)c2)[C@@H](C)C1 (stereo partly drawn) [compound 215, 5-[3-[(3S)-4-(3-fluorophenyl)-3-methyl-piperazin-1-yl]-2-methyl-3-oxo-propyl]-5-methyl-imidazolidine-2,4-dione] | 18 nM | 37 nM | > 12000 nM | > 4000 nM | 2600 nM | – | –
COC(CC1(C)NC(=O)NC1=O)C(=O)N1CCN(c2cc(F)cc(Cl)c2)[C@@H](C)C1 (stereo partly drawn) [compound 295, 5-[3-[(3S)-4-(3-chloro-5-fluoro-phenyl)-3-methyl-piperazin-1-yl]-2-methoxy-3-oxo-propyl]-5-methyl-imidazolidine-2,4-dione] | 71 nM | 115 nM | > 20000 nM | – | 3460 nM | – | –
CC(CC1(C2CN(C(=O)OC(C)(C)C)C2)NC(=O)NC1=O)C(=O)N1CCN(c2ccc(F)c(F)c2)CC1 (stereo not shown) [compound 234, tert-butyl 3-[4-[3-[4-(3,4-difluorophenyl)piperazin-1-yl]-2-methyl-3-oxo-propyl]-2,5-dioxo-imidazolidin-4-yl]azetidine-1-carboxy late] | – | 28 nM | > 4000 nM | 5.6 nM | 7 nM | – | –
Cc1ccc(Cl)cc1N1CCN(C(=O)CCC2(C3CC3)NC(=O)NC2=O)CC1 (stereo not shown) [compound 36, 5-[3-[4-(5-chloro-2-methyl-phenyl)piperazin-1-yl]-3-oxo-propyl]-5-cyclopropyl-imidazolidine-2,4-dione] | 29 nM | – | 670 nM | > 20000 nM | > 20000 nM | – | 34 nM
CC(CC1(CCN)NC(=O)NC1=O)C(=O)N1CCN(c2cc(Cl)cc(Cl)c2)CC1 (stereo not shown) [compound 210, 5-(2-aminoethyl)-5-[3-[4-(3,5-dichlorophenyl)piperazin-1-yl]-2-methyl-3-oxo-propyl]imidazolidine-2,4-dione] | 105 nM | 108 nM | 1440 nM | > 14700 nM | > 20000 nM | – | –
CC(CC1(CCS(C)(=O)=O)NC(=O)NC1=O)C(=O)N1CCN(c2cc(Cl)cc(Cl)c2)CC1 (stereo not shown) [Cpd 218, 5-[3-[4-(3,5-dichlorophenyl)piperazin-1-yl]-2-methyl-3-oxo-propyl]-5-(2-methylsulfonylethyl)imidazolidine-2,4-dione] | 17 nM | 20 nM | 272 nM | 2220 nM | 1310 nM | – | –
C[C@H]1CN(C(=O)CCC2(c3cocn3)NC(=O)NC2=O)CCN1c1cc(F)cc(Cl)c1 (stereo partly drawn) [compound 388, 5-[3-[(3S)-4-(3-chloro-5-fluoro-phenyl)-3-methyl-piperazin-1-yl]-3-oxo-propyl]-5-oxazol-4-yl-imidazolidine-2,4-dione] | 74 nM | 57 nM | > 4000 nM | – | 549 nM | – | –
C[C@H]1CN(C(=O)CC[C@@]2(C3CC3)NC(=O)NC2=O)CCN1c1cc(Cl)cc(Cl)c1 [compound 204, (5S)-5-cyclopropyl-5-[3-[(3S)-4-(3,5-dichlorophenyl)-3-methyl-piperazin-1-yl]-3-oxo-propyl]imidazolidine-2,4-dione] | 11 nM | 16 nM | 3870 nM | > 12000 nM | > 20000 nM | – | –
Cc1ccc(F)cc1N1CCN(C(=O)CCC2(C)NC(=O)NC2=O)CC1 (stereo not shown) [compound 51, 5-[3-[4-(5-fluoro-2-methyl-phenyl)piperazin-1-yl]-3-oxo-propyl]-5-methyl-imidazolidine-2,4-dione] | 508 nM | – | > 3660 nM | – | > 20000 nM | – | –
